Data from ChEMBL document CHEMBL4321853, “Multitarget CFTR Modulators Endowed with Multiple Beneficial Side Effects for Cystic Fibrosis Patients: Toward a Simplified Therapeutic Approach †” (J Med Chem, 2019).
≈ marks a conversion by molar mass, not a printed value. Calls of active or inactive are those of the source. No cut-off for these calls is given here.

Experiments:
[1] = Cytotoxicity against human RD cells assessed as reduction in cell viability incubated for 2 to 3 days by MTS assay; type: cell-based
Enterovirus A71 = assay: Antiviral activity against Enterovirus A71 infected in human RD cells assessed as reduction in cytopathic effect incubated for 2 to 3 days by MTS assay; type: functional, organism-based
[2] = test system: Cystic fibrosis transmembrane conductance regulator (Homo sapiens), P13569 [F508del]; assay: Corrector activity at CFTR F508del mutant (unknown origin) transfected in human HEK293 membrane cells assessed as increase in CFTR F508del level at 10 uM incubated for 24 hrs by using pHTomato probe based fluorescence inverted microscopic analysis; type: cell-based
Chain of Cystic fibrosis transmembrane conductance regulator (Homo sapiens), P13569 [F508del] (P13569 as listed by the source): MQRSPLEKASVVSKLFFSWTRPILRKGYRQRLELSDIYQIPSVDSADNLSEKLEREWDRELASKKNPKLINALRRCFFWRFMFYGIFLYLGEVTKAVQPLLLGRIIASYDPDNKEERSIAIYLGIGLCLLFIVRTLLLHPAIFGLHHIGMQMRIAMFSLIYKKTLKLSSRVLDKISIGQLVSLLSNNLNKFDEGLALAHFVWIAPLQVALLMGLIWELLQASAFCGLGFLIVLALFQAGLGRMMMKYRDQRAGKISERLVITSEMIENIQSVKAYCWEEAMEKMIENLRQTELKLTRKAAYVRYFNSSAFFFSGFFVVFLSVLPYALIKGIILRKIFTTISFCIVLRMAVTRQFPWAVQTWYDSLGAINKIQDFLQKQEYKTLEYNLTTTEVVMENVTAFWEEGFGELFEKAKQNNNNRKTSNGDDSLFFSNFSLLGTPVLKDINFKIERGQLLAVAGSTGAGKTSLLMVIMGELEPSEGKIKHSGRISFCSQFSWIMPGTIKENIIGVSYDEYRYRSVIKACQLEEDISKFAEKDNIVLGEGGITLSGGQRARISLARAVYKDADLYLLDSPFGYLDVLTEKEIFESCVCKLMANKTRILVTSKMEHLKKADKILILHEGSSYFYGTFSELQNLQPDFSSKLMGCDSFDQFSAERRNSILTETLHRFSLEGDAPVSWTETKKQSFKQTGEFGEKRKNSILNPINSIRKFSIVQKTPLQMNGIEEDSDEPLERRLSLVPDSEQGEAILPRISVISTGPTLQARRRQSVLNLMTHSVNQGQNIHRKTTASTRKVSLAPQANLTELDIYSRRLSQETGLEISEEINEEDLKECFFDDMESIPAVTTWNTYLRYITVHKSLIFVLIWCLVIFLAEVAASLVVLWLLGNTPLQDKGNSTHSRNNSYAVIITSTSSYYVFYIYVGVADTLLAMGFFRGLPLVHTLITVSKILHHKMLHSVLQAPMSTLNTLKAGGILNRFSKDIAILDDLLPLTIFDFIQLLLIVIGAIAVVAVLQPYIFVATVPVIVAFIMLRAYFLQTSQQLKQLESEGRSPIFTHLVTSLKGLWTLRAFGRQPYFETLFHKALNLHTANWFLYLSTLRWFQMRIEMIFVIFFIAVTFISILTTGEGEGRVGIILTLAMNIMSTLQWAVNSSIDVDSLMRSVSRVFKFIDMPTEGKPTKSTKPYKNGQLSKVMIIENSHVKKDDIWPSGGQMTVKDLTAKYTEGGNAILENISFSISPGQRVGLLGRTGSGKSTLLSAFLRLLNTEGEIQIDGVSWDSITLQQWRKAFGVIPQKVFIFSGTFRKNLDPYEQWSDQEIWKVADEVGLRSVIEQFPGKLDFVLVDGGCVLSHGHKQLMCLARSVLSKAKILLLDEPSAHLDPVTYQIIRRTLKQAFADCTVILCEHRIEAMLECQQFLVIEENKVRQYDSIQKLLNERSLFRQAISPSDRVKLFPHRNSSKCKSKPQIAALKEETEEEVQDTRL

[3] = test system: Cystic fibrosis transmembrane conductance regulator (Homo sapiens), P13569 [F508del]; assay: Corrector activity at CFTR F508del mutant (unknown origin) transfected in human HEK293 membrane cells assessed as increase in anion permeability at 3 uM incubated for 24 hrs by using YFP probe based fluorescence inverted microscopic analysis; type: cell-based
[4] = test system: Cystic fibrosis transmembrane conductance regulator (Homo sapiens), P13569 [F508del]; assay: Corrector activity at CFTR F508del mutant (unknown origin) transfected in human HEK293 membrane cells assessed as increase in CFTR level at 3 uM incubated for 24 hrs by using pHTomato probe based fluorescence inverted microscopic analysis; type: cell-based
[5] = Cytotoxicity against human RD cells infected with Human coxsackievirus B3 assessed as reduction in cell viability incubated for 2 to 3 days by MTS assay; type: cell-based
[6] = Acute toxicity in C57BL/6 mouse assessed as effect on motor coordination upto 180 mg/kg, sc observed for 15 days; type: organism-based; conditions: in vivo, 360 h
[7] = Toxicity in C57BL/6 mouse assessed as effect on columnar lining cell upto 180 mg/kg, sc observed after 4 and 72 hrs by hematoxylin and eosin staining based microscopy; type: organism-based; conditions: in vivo
[8] = Toxicity in C57BL/6 mouse assessed as hemorrhage in lung upto 180 mg/kg, sc observed after 4 and 72 hrs by hematoxylin and eosin staining based microscopy; type: organism-based; conditions: in vivo
[9] = Cytotoxicity against human RD cells infected with Human rhinovirus B14 assessed as reduction in cell viability incubated for 2 to 3 days by MTS assay; type: cell-based
[10] = Aqueous solubility of compound by LC-MS analysis; type: physicochemical; conditions: buffer
[11] = Selectivity index, ratio of CC50 for human RD cells to EC50 for Enterovirus A71 infected in human RD cells; type: toxicity, cell-based; conditions: read-out: Ratio CC50/EC50
rhinovirus B14 = assay: Antiviral activity against Human rhinovirus B14 infected in human RD cells assessed as reduction in cytopathic effect incubated for 2 to 3 days by MTS assay; type: functional, organism-based; conditions: Rhinovirus B
[12] = Acute toxicity in C57BL/6 mouse assessed as effect on behavior changes upto 180 mg/kg, sc observed for 15 days; type: organism-based; conditions: in vivo, 360 h
Coxsackievirus B3 = assay: Antiviral activity against Human coxsackievirus B3 infected in human RD cells assessed as reduction in cytopathic effect incubated for 2 to 3 days by MTS assay; type: functional, organism-based; conditions: Enterovirus B
[13] = Toxicity in C57BL/6 mouse assessed as alveolar/interstitial inflammatory infiltrate upto 180 mg/kg, sc observed after 4 and 72 hrs by hematoxylin and eosin staining based microscopy; type: organism-based; conditions: in vivo
[14] = Metabolic stability in human liver microsomes assessed as compound remaining at 50 uM incubated for 1 hr by UV/LC-MS analysis; type: ADME, Microsome; conditions: read-out: Stability
[15] = Stability in human plasma assessed as half life measured upto 24 hrs by UV/LC-MS analysis; type: ADME, cell-free
[16] = Toxicity in C57BL/6 mouse assessed as inflammation of intestinal submucosa upto 180 mg/kg, sc observed after 4 and 72 hrs by hematoxylin and eosin staining based microscopy; type: organism-based; conditions: in vivo
[17] = Toxicity in C57BL/6 mouse assessed as effect on alveolar microstructure upto 180 mg/kg, sc observed after 4 and 72 hrs by hematoxylin and eosin staining based microscopy; type: organism-based; conditions: in vivo
Albumin [18] = target: T1, Albumin (Homo sapiens, UniProt P02768); assay: Binding affinity to human serum albumin assessed as maximum binding at 0.1 to 500 uM incubated for 30 mins by spectrofluorimetry; type: ADME; conditions: isolated protein, 0.5 h
T1 sequence (P02768 whole entry): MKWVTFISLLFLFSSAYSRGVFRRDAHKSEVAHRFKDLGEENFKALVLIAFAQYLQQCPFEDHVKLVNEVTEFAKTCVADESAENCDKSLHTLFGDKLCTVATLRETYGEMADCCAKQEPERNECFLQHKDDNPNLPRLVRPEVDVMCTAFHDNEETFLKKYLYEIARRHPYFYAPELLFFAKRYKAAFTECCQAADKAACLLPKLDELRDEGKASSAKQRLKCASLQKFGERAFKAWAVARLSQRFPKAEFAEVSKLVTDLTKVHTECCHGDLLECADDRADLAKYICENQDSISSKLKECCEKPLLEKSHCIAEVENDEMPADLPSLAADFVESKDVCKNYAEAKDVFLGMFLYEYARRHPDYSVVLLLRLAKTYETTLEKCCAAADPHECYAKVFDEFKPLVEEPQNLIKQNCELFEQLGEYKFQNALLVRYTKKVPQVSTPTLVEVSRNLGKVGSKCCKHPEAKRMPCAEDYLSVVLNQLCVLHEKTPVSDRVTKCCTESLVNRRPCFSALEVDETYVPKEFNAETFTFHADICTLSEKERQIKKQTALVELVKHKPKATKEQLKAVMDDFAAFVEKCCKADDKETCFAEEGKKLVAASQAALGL

Albumin [19] = target: T1, Albumin; assay: Binding affinity to human serum albumin assessed as dissociation constant incubated for 30 mins by spectrofluorimetry; type: ADME
[20] = Toxicity in C57BL/6 mouse assessed as epithelial hyperplasia upto 180 mg/kg, sc observed after 4 and 72 hrs by hematoxylin and eosin staining based microscopy; type: organism-based; conditions: in vivo
[21] = Acute toxicity in C57BL/6 mouse assessed as body weight loss upto 180 mg/kg, sc observed for 15 days; type: organism-based; conditions: in vivo, 360 h
rhinovirus A2 = assay: Antiviral activity against Human rhinovirus A2 infected in human RD cells assessed as reduction in cytopathic effect incubated for 2 to 3 days by MTS assay; type: functional, organism-based; conditions: Rhinovirus A
[22] = Toxicity in C57BL/6 mouse assessed as effect on distribution of goblet cells upto 180 mg/kg, sc observed after 4 and 72 hrs by hematoxylin and eosin staining based microscopy; type: organism-based; conditions: in vivo
[23] = Cytotoxicity against human RD cells infected with Human rhinovirus A2 assessed as reduction in cell viability incubated for 2 to 3 days by MTS assay; type: cell-based
[24] = Toxicity in C57BL/6 mouse assessed as effect on hepatic labyrinth of hepatocytes upto 180 mg/kg, sc observed after 4 and 72 hrs by hematoxylin and eosin staining based microscopy; type: organism-based; conditions: in vivo
[25] = Membrane retention of compound by PAMPA assay; type: ADME
[26] = target: Phosphatidylinositol 4-kinase beta (Homo sapiens, UniProt Q9UBF8); assay: Inhibition of recombinant human full length His6-tagged PI4KIII beta expressed in Sf9 cells incubated for 0 mins in presence of [gamma-33P ATP] by scintillation counting method
Chain of Phosphatidylinositol 4-kinase beta (Q9UBF8 whole entry): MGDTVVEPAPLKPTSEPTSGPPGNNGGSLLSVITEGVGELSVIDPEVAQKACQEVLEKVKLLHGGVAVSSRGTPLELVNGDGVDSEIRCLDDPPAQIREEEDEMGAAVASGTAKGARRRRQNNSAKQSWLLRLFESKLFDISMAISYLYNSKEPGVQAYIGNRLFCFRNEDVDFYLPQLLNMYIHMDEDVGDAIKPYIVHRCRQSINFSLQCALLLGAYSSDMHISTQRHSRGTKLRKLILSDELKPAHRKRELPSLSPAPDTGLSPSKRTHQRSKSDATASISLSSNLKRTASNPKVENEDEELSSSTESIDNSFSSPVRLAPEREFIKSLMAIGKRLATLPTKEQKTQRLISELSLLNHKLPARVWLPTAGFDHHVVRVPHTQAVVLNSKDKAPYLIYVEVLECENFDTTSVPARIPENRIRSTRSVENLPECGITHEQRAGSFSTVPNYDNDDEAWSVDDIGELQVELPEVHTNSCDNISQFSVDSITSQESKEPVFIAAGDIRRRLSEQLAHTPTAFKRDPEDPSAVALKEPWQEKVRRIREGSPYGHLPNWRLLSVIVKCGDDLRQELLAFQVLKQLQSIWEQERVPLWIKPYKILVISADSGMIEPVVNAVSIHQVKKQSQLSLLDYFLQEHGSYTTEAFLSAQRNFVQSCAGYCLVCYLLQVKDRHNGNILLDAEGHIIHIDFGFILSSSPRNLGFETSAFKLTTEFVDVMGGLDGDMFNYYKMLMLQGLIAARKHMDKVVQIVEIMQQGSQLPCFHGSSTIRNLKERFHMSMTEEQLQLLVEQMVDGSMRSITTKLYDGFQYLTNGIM

[27] = Apparent permeability of compound by PAMPA assay; type: ADME
[28] = Enterovirus A, RD, read-out: EC50

Cc1nc(NC(=O)C(C)(C)C)sc1-c1csc(NCC(=O)O)n1
CC50 [1]: > 282 µM
EC50 (Enterovirus A71; [28]): 5.31 µM

Cc1nc(NC(=O)C(C)(C)C)sc1-c1csc(N(CCO)C2CCCCC2)n1
Activity [2]: Active
CC50 [1]: 4.46 µM
Activity [3]: Active
EC50 (Enterovirus A71; [28]): 4.96 µM
Activity [4]: Active

CC(=O)Nc1nc(C)c(-c2csc(NC(=O)/C=C/C(C)C)n2)s1
CC50 [1]: 172 µM
EC50 (Enterovirus A71; [28]): 107 µM

CC(=O)Nc1nc(C)c(-c2csc(N(C)C3CCCCC3)n2)s1
CC50 [1]: 19.4 µM
EC50 (Enterovirus A71; [28]): 0.88 µM

CC(=O)c1cccc(Nc2nc(-c3sc(NC(=O)c4ccccc4)nc3C)cs2)c1
Activity [4]: Active

CCC(=O)Nc1nc(-c2sc(NC(C)=O)nc2C)cs1
EC50 (Enterovirus A71): Not Active

CC(=O)c1cccc(N(CCO)c2nc(-c3sc(NC(=O)C(C)(C)C)nc3C)cs2)c1
CC50 [5]: > 218 µM
Activity [6]: Non-Toxic
Activity [2]: Active
Activity [7]: Non-Toxic
Activity [8]: Non-Toxic
CC50 [9]: 16.8 µM
CC50 [1]: 28.9 µM
solubility ([10]; read-out: solubility): 0.1 µM (≈ 0.0459 µg/mL)
selectivity ratio [11]: > 67.2
EC50 (rhinovirus B14): > 9.1 µM
Activity [12]: Non-Toxic
EC50 (Coxsackievirus B3): 6.6 µM
Activity [13]: Non-Toxic
remaining at 1 h, 50 µM [14]: 98%
half-life [15]: 24.2 days
Activity [16]: Non-Toxic
Activity [17]: Non-Toxic
Activity [3]: Active
Bmax (Albumin [18]): 81.73
Kd (Albumin [19]): 18.5 µM
EC90 (Enterovirus A71; Enterovirus A, RD): 5.78 µM
EC50 (Enterovirus A71; [28]): < 0.43 µM
Activity [20]: Non-Toxic
Activity [21]: Non-Toxic
EC50 (rhinovirus A2): 6.1 µM
Activity [22]: Non-Toxic
CC50 [23]: 16.8 µM
Activity [24]: Non-Toxic
Activity [4]: Active
R% [25]: < 0.1%

C=CS(=O)(=O)Nc1nc(-c2sc(NC(C)=O)nc2C)cs1
IC50 [26]: Not Active
EC50 (Enterovirus A71; [28]): > 290 µM

CC(=O)Nc1nc(C)c(-c2csc(NCCO)n2)s1
CC50 [1]: 333 µM
EC50 (Enterovirus A71; [28]): 12.6 µM

Cc1nc(NC(=O)C(C)(C)C)sc1-c1csc(Nc2cccc(C(=O)O)c2)n1
CC50 [5]: 111 µM
Activity [2]: Active
CC50 [9]: 36.3 µM
CC50 [1]: 32.1 µM
EC50 (rhinovirus B14): 15.3 µM
EC50 (Coxsackievirus B3): 17 µM
Activity [3]: Active
EC50 (Enterovirus A71; [28]): 0.42 µM
EC50 (rhinovirus A2): 9.7 µM
CC50 [23]: 36.3 µM
Activity [4]: Active

Cc1nc(NC(=O)OC(C)(C)C)sc1-c1csc(NCCO)n1
CC50 [1]: > 421 µM
EC50 (Enterovirus A71; [28]): 11.4 µM

CC(=O)Nc1nc(C)c(-c2csc(NC3CCCCC3)n2)s1
CC50 [1]: 25.5 µM
EC50 (Enterovirus A71; [28]): 1.1 µM

CC(=O)Nc1nc(C)c(-c2csc(NC(=O)CBr)n2)s1
EC50 (Enterovirus A71): Not Active

COc1ccc(Cl)cc1Nc1nc(-c2sc(NC(=O)c3ccccc3)nc2C)cs1
solubility [10]: 0.02 µM (≈ 0.00914 µg/mL)
remaining at 1 h, 50 µM [14]: 98%
half-life [15]: 3.61 days
Bmax (Albumin [18]): 88.82
Kd (Albumin [19]): 11.7 µM
Papp [27]: 8.1 ×10⁻⁶ cm/s
R% [25]: 37.9%

CC(=O)Nc1nc(C)c(-c2csc(N(CCO)c3cccc(C(C)=O)c3)n2)s1
EC50 (Enterovirus A71): Not Active

CC(=O)Nc1nc(C)c(-c2csc(N(CCO)C3CCCCC3)n2)s1
CC50 [5]: 20.8 µM
CC50 [9]: 4.51 µM
CC50 [1]: 16.4 µM
EC50 (rhinovirus B14): 6.24 µM
EC50 (Coxsackievirus B3): 16.1 µM
EC50 (Enterovirus A71; [28]): 1.1 µM
EC50 (rhinovirus A2): > 263 µM
CC50 [23]: > 4.51 µM

Cc1nc(NC(=O)C(C)(C)C)sc1-c1csc(NCCC(=O)O)n1
CC50 [1]: > 271 µM
EC50 (Enterovirus A71; [28]): 6.48 µM

C=CC(=O)Nc1nc(-c2sc(NC(C)=O)nc2C)cs1
CC50 [1]: 6.01 µM
EC50 (Enterovirus A71; [28]): 1.89 µM

Cc1nc(NC(=O)C(C)(C)C)sc1-c1csc(NCCCC(=O)O)n1
CC50 [1]: 261 µM
EC50 (Enterovirus A71; [28]): 7.27 µM

Cc1nc(NC(=O)C(C)(C)C)sc1-c1csc(NCCO)n1
CC50 [5]: > 293 µM
Activity [2]: Active
CC50 [9]: 41.2 µM
CC50 [1]: 361 µM
EC50 (rhinovirus B14): 3.8 µM
EC50 (Coxsackievirus B3): 2.3 µM
Activity [3]: inactive
EC50 (Enterovirus A71; [28]): 1.83 µM
EC50 (rhinovirus A2): 5.4 µM
CC50 [23]: 41.2 µM
Activity [4]: Active

CC(=O)c1cccc(Nc2nc(-c3sc(NC(=O)OC(C)(C)C)nc3C)cs2)c1
Activity [4]: Active

CC(=O)Nc1nc(C)c(-c2csc(NC3CCC(C)CC3)n2)s1 (stereo not given)
CC50 [1]: 10.9 µM
EC50 (Enterovirus A71; [28]): 0.34 µM

Cc1nc(NC(=O)c2ccccc2)sc1-c1csc(NCCO)n1
EC50 (Enterovirus A71): Not Active
